According to publication PMC4494927, “Discovery of a small molecule targeting SET-PP2A interaction to overcome BCR-ABLT315I mutation of chronic myeloid leukemia” (Oncotarget, 2015):

Key:
[1] = tested on: BaF3-p210^T315I tumor xenografts; assay: In vivo anti-tumor efficacy, subcutaneous xenograft; design: species or system BALB/c mice; conditions: for inhibition of tumor growth, in terms of tumor volume: day 20 post-injection of BaF3-p210^T315I cells
Method: BABL/c male mice from SLRC Experimental Animal Center were bred under pathogen-free conditions and were used for experiments at 6-8 weeks of age. Animal experiments were performed according to institutional and national guidelines. BaF3-p210^T315I cells were implanted subcutaneously into the right flank of nude mice (200 μL of a 1 × 10^7cells suspension in serum free medium). When tumors became large enough for caliper measurement, tumor volumes were calculated as (length × width^2) × 0.5. […] At the end of the experiments, tumors were dissected and photographed, and wet weights of each tumor were measured.

BaF3-p210^T315I cells = assay: Survival study, intravenously injected tumor cells; type: in vivo, BALB/c mice; conditions: 30 mg/kg i.p. once daily from day 5; vehicle 25.5 days
Method: In survival study, BaF3-p210^T315I cells were injected into the tail vein of BALB/c mice (100 μL of a 1 × 10^7 cells suspension in serum free medium). […] Moribund animals were sacrificed as per institutional and national guidelines. Survival data were analyzed by the Kaplan Meier method and compared using the log-rank test.

K562 cells = assay: Cytotoxicity assay (CellTiter-Glo); type: cell-based, human
Method: Twenty types of tumor cell lines were seeded at 4000 cells per well in 96-well plates. […] Cell viability was measured with the CellTiter-Glo Luminescent Cell Viability Assay (Promega) according to the manufacturer's instructions. Luminescence was measured using an EnVision Multilabel Plate Reader (Perkin-Elmer). The cytotoxicity of TGI1002 was expressed as the percentage of luminescence relative to that of untreated cells.

EphB2 = EphB2 (Homo sapiens, UniProt P29323); assay: In vitro kinase assay (Kinase-Glo / ADP-Glo); type: biochemical
Method: (§1) All kinase reactions were carried out in 384-well plates. After addition of the compounds, kinase and ATP-substrate were added to the assay plates successively, the assay plates were centrifuged at 1,000 x g for 1 min and incubated for 1 h at 30 °C. Then, Kinase-Glo Plus or ADP-Glo reagent was added to each well. In Kinase-Glo assay, after addition of the reagent for 20 min, the luminescence was measured on an EnVision Multilabel Plate Reader (Perkin-Elmer). In ADP-Glo assay, after addition of the reagent for 40 min, Kinase Detection Reagent was added and incubated for another 30 min at 27 °C, and then the luminescence was measured. Kinase inhibition rates were calculated per manufacturer's instructions.

GSK3β = GSK3β (Homo sapiens, UniProt P49841); assay: In vitro kinase assay (Kinase-Glo / ADP-Glo); type: biochemical; conditions: TGI1002 1 µM; means of two independent experiments; read-out: Inhibitory effect (%)
Method: as §1

p38β = p38β (Homo sapiens, UniProt Q15759); assay: In vitro kinase assay (Kinase-Glo / ADP-Glo); type: biochemical; conditions: TGI1002 1 µM; means of two independent experiments; read-out: Inhibitory effect (%)
Method: as §1

ABL1 = ABL1 (Homo sapiens, UniProt P00519); assay: In vitro kinase assay (Kinase-Glo / ADP-Glo); type: biochemical; conditions: TGI1002 1 µM; means of two independent experiments; read-out: Inhibitory effect (%)
Method: as §1

EphA1 = EphA1 (Homo sapiens, UniProt P21709); assay: In vitro kinase assay (Kinase-Glo / ADP-Glo); type: biochemical; conditions: TGI1002 1 µM; means of two independent experiments; read-out: Inhibitory effect (%)
Method: as §1

CHK1 = CHK1 (Homo sapiens, UniProt O14757); assay: In vitro kinase assay (Kinase-Glo / ADP-Glo); type: biochemical; conditions: TGI1002 1 µM; means of two independent experiments; read-out: Inhibitory effect (%)
Method: as §1

FGR = FGR (Homo sapiens, UniProt P09769); assay: In vitro kinase assay (Kinase-Glo / ADP-Glo); type: biochemical; conditions: TGI1002 1 µM; means of two independent experiments; read-out: Inhibitory effect (%)
Method: as §1

c-KIT = c-KIT (Homo sapiens, UniProt P10721); assay: In vitro kinase assay (Kinase-Glo / ADP-Glo); type: biochemical; conditions: TGI1002 1 µM; means of two independent experiments; read-out: Inhibitory effect (%)
Method: as §1

PKCξ = PKCξ (Homo sapiens, UniProt Q05513); assay: In vitro kinase assay (Kinase-Glo / ADP-Glo); type: biochemical; conditions: TGI1002 1 µM; means of two independent experiments; read-out: Inhibitory effect (%)
Method: as §1

ABL2 = ABL2 (Homo sapiens, UniProt P42684); assay: In vitro kinase assay (Kinase-Glo / ADP-Glo); type: biochemical; conditions: TGI1002 1 µM; means of two independent experiments; read-out: Inhibitory effect (%)
Method: as §1

NEK2 = NEK2 (Homo sapiens, UniProt P51955); assay: In vitro kinase assay (Kinase-Glo / ADP-Glo); type: biochemical; conditions: TGI1002 1 µM; means of two independent experiments; read-out: Inhibitory effect (%)
Method: as §1

TrkA = TrkA (Homo sapiens, UniProt P04629); assay: In vitro kinase assay (Kinase-Glo / ADP-Glo); type: biochemical; conditions: TGI1002 1 µM; means of two independent experiments; read-out: Inhibitory effect (%)
Method: as §1

LCK = LCK (Homo sapiens, UniProt P06239); assay: In vitro kinase assay (Kinase-Glo / ADP-Glo); type: biochemical; conditions: TGI1002 1 µM; means of two independent experiments; read-out: Inhibitory effect (%)
Method: as §1

AKT1 = AKT1 (Homo sapiens, UniProt P31749); assay: In vitro kinase assay (Kinase-Glo / ADP-Glo); type: biochemical; conditions: TGI1002 1 µM; means of two independent experiments; read-out: Inhibitory effect (%)
Method: as §1

PKAcr = PKAcr (Homo sapiens, UniProt P22612); assay: In vitro kinase assay (Kinase-Glo / ADP-Glo); type: biochemical; conditions: TGI1002 1 µM; means of two independent experiments; read-out: Inhibitory effect (%)
Method: as §1

PKAcα = PKAcα (Homo sapiens, UniProt P17612); assay: In vitro kinase assay (Kinase-Glo / ADP-Glo); type: biochemical; conditions: TGI1002 1 µM; means of two independent experiments; read-out: Inhibitory effect (%)
Method: as §1

AKT2 = AKT2 (Homo sapiens, UniProt P31751); assay: In vitro kinase assay (Kinase-Glo / ADP-Glo); type: biochemical; conditions: TGI1002 1 µM; means of two independent experiments; read-out: Inhibitory effect (%)
Method: as §1

AKT3 = AKT3 (Homo sapiens, UniProt Q9Y243); assay: In vitro kinase assay (Kinase-Glo / ADP-Glo); type: biochemical; conditions: TGI1002 1 µM; means of two independent experiments; read-out: Inhibitory effect (%)
Method: as §1

PI3Kδ = PI3Kδ (Homo sapiens, UniProt O00329); assay: In vitro kinase assay (Kinase-Glo / ADP-Glo); type: biochemical; conditions: TGI1002 1 µM; means of two independent experiments; read-out: Inhibitory effect (%)
Method: as §1

CDK1/CyclinB = CDK1/CyclinB (Homo sapiens, UniProt P06493); assay: In vitro kinase assay (Kinase-Glo / ADP-Glo); type: biochemical; conditions: TGI1002 1 µM; means of two independent experiments; read-out: Inhibitory effect (%)
Method: as §1

CAMK1 = CAMK1 (Homo sapiens, UniProt Q14012); assay: In vitro kinase assay (Kinase-Glo / ADP-Glo); type: biochemical; conditions: TGI1002 1 µM; means of two independent experiments; read-out: Inhibitory effect (%)
Method: as §1

PLK1 = PLK1 (Homo sapiens, UniProt P53350); assay: In vitro kinase assay (Kinase-Glo / ADP-Glo); type: biochemical; conditions: TGI1002 1 µM; means of two independent experiments; read-out: Inhibitory effect (%)
Method: as §1

ERK2(MAPK1) = ERK2(MAPK1) (Homo sapiens, UniProt P28482); assay: In vitro kinase assay (Kinase-Glo / ADP-Glo); type: biochemical; conditions: TGI1002 1 µM; means of two independent experiments; read-out: Inhibitory effect (%)
Method: as §1

ALK = ALK (Homo sapiens, UniProt Q9UM73); assay: In vitro kinase assay (Kinase-Glo / ADP-Glo); type: biochemical; conditions: TGI1002 1 µM; means of two independent experiments; read-out: Inhibitory effect (%)
Method: as §1

PDGFRβ = PDGFRβ (Homo sapiens, UniProt P09619); assay: In vitro kinase assay (Kinase-Glo / ADP-Glo); type: biochemical; conditions: TGI1002 1 µM; means of two independent experiments; read-out: Inhibitory effect (%)
Method: as §1

EphB2, sequence (P29323 19-1055, species assumed): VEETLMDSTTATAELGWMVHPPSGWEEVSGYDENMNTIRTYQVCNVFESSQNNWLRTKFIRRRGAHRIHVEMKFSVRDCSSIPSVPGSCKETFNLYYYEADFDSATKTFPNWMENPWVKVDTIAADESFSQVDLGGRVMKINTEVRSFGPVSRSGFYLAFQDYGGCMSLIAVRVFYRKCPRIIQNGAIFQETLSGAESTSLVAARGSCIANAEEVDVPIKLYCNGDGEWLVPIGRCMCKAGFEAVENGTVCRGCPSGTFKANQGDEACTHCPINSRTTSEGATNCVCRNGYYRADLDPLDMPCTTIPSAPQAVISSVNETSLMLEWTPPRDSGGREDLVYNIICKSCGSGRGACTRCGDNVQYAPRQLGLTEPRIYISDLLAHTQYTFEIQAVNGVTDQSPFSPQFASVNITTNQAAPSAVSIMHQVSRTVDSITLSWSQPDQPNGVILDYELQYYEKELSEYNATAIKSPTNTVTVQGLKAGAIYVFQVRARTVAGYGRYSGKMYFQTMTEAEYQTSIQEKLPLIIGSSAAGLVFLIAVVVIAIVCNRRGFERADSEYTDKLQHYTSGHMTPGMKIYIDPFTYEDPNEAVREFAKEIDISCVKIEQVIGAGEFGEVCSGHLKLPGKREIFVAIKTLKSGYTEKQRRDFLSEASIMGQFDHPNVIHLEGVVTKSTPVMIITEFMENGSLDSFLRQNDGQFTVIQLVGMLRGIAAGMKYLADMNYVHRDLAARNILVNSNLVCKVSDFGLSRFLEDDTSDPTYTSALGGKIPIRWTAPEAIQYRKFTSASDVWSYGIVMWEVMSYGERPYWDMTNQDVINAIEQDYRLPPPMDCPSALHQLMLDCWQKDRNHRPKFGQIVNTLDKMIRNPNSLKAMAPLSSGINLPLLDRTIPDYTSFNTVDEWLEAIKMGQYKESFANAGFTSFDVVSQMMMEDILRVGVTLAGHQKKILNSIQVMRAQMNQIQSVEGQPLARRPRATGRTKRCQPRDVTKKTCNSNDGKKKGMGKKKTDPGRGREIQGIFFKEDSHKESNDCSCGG
LCK, sequence (P06239 whole entry): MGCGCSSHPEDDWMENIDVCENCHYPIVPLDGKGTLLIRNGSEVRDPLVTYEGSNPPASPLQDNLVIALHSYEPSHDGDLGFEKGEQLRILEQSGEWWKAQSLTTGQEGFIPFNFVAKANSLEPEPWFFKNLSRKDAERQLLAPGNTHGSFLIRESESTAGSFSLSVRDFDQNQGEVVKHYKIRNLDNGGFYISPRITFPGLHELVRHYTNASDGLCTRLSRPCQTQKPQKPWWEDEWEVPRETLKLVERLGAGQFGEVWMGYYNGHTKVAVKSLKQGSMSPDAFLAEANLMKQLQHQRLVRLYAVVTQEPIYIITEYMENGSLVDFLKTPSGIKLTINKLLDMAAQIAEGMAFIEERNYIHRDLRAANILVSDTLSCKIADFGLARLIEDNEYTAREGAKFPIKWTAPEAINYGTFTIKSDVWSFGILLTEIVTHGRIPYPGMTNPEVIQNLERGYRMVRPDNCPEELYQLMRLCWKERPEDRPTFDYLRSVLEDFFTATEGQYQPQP
CHK1, sequence (O14757 whole entry): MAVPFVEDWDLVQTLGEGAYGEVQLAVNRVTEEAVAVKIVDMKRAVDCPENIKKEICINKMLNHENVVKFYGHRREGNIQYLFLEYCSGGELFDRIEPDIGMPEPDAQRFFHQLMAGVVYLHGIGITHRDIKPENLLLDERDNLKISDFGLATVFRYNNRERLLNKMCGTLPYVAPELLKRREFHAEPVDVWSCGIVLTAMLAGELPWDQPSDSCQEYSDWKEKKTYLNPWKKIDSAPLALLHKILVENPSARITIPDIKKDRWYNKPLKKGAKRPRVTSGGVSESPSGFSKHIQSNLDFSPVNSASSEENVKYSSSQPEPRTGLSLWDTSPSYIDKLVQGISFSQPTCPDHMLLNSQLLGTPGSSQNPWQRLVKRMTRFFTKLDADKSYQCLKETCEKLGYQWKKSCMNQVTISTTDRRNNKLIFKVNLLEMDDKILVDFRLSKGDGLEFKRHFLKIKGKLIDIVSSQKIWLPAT
TrkA, sequence (P04629 33-796): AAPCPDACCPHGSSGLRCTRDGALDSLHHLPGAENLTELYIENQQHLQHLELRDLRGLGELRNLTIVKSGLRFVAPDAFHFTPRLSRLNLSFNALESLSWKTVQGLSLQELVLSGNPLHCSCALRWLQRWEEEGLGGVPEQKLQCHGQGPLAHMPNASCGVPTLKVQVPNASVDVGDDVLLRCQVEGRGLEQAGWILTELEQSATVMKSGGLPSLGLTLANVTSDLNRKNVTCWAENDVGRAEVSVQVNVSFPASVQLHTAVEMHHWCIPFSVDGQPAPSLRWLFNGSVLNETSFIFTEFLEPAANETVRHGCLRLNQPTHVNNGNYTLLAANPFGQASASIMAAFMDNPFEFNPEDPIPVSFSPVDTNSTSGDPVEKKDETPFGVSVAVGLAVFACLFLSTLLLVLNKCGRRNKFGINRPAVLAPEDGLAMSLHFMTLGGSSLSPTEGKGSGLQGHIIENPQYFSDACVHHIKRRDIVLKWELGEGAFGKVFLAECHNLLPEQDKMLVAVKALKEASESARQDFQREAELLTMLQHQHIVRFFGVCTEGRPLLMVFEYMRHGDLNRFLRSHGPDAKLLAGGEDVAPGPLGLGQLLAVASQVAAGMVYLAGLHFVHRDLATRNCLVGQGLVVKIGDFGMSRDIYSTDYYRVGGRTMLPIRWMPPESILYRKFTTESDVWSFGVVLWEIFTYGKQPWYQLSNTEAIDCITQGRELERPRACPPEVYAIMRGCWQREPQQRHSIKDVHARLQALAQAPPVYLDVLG
CDK1/CyclinB, sequence (P06493 whole entry): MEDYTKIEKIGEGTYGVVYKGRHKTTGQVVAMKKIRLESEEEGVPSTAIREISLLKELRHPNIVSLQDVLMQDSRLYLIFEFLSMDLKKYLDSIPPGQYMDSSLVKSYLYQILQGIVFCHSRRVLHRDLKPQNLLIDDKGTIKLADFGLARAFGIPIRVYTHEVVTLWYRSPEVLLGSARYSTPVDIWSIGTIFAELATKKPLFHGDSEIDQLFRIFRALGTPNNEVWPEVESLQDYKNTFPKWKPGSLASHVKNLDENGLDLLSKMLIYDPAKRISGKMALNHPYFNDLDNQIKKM
CDK1/CyclinB, sequence (P14635 whole entry partner): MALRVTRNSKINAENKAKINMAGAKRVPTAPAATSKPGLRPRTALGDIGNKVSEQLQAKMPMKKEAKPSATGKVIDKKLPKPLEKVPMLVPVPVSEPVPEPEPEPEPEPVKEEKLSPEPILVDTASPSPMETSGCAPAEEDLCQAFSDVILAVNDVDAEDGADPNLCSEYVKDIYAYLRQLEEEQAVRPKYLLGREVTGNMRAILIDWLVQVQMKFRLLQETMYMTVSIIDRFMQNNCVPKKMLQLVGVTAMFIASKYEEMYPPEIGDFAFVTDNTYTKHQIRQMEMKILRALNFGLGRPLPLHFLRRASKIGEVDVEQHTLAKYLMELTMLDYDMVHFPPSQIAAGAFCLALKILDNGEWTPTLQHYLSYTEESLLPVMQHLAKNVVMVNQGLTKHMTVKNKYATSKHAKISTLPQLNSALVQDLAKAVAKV
c-KIT, sequence (P10721 26-976): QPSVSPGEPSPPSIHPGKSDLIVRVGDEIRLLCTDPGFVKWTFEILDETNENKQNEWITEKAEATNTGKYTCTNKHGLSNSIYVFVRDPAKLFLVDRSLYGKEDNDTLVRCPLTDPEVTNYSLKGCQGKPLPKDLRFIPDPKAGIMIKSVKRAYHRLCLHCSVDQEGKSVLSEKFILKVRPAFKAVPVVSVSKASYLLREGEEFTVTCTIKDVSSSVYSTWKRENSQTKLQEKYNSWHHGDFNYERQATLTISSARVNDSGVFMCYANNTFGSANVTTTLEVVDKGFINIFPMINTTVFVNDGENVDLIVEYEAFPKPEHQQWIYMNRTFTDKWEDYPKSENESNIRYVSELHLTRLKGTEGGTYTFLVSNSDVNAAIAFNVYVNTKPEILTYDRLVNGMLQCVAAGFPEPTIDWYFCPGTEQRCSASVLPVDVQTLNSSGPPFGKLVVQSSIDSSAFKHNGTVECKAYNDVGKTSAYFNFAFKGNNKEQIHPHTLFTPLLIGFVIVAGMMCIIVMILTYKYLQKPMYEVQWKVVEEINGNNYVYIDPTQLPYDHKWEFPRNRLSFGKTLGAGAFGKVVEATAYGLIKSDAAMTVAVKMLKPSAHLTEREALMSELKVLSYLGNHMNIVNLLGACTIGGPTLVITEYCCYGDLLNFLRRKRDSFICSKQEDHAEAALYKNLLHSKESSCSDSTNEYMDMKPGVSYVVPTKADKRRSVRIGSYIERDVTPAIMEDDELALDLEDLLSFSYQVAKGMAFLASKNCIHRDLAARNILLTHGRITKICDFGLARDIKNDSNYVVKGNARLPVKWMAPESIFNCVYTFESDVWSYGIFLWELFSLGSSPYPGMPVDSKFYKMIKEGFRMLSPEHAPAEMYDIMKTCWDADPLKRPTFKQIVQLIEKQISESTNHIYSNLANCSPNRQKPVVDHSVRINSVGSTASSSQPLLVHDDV
p38β, sequence (Q15759 whole entry): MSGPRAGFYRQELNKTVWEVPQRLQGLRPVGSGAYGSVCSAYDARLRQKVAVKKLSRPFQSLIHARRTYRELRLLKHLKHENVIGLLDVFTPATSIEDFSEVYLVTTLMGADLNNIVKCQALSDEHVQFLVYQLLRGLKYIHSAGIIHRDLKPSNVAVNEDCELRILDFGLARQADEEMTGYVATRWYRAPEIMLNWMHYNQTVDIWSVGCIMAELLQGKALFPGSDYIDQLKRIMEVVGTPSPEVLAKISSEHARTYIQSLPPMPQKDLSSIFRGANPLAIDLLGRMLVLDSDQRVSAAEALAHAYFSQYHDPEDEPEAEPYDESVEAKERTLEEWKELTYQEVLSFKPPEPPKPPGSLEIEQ

With `Cc1ccc(NC(=O)c2cccc(CN3CCN(C)CC3)c2)cc1Oc1nccc(-c2cccnc2)n1.Cl` [TGI1002, N-(4-methyl-3-((4-(pyridin-3-yl)-pyrimidin-2-yl)oxy)phenyl)-3-((4-methylpiperazin-1-yl)methyl)benzamide hydrochloride] the “inhibition of tumor growth, in terms of tumor volume” value (shortened to “inhibition of tumor growth”) ([1]; 30 mg/kg i.p. daily) was 51.07%, the “inhibition of tumor growth” value ([1]; 45 mg/kg i.p. daily) was 53.15% and the “inhibition of tumor growth” value ([1]; 60 mg/kg i.p. daily) was 68.01%. The body weight ([1]; 30, 45 and 60 mg/kg i.p. daily, tumor-bearing mice) was “without loss of body weight”, the “final tumor volume and weight compared to vehicle group” value ([1]; TGI1002 30, 45, 60 mg/kg, imatinib, ponatinib 10 mg/kg, i.p. daily) was “markedly lower” and the median survival (BaF3-p210^T315I cells) was 32.5 days. For the same compound, the IC50 (K562 cells; Homo sapiens, 72 h, cell viability) was 11 ± 1.98 µM, the “fold less potent than imatinib” value (K562 cells; IC50 at 72 h) was “approximately 35 fold” and the IC50 (EphB2; EphB2 kinase activity) was 1.27 µM. The inhibition at 1 µM (EphB2; TGI1002 1 µM, means of two independent experiments, read-out: Inhibitory effect (%)) was 46.7%, the inhibition at 1 µM (GSK3β) was 2.59% and the inhibition at 1 µM (p38β) was 0.2%. The inhibition at 1 µM (ABL1) was 4.3%, the inhibition at 1 µM (EphA1) was 1.58% and the inhibition at 1 µM (CHK1) was 3.61%. The inhibition at 1 µM (FGR) was 7.53%, the inhibition at 1 µM (c-KIT) was 15.2% and the inhibition at 1 µM (PKCξ) was 13.3%. It also gave an inhibition at 1 µM (ABL2) of 19.2%, an inhibition at 1 µM (NEK2) of 1.56% and an inhibition at 1 µM (TrkA) of 3.11%. For the same compound, the inhibition at 1 µM (LCK) was 5.82%, the inhibition at 1 µM (AKT1) was 5.07% and the inhibition at 1 µM (PKAcr) was 1.45%. The inhibition at 1 µM (PKAcα) was 5.96%, the inhibition at 1 µM (AKT2) was 4.72% and the inhibition at 1 µM (AKT3) was 3.62%. The inhibition at 1 µM (PI3Kδ) was 0.71%, the inhibition at 1 µM (CDK1/CyclinB) was 3.24% and the inhibition at 1 µM (CAMK1) was 4.93%. The inhibition at 1 µM (PLK1) was 1.63%, the inhibition at 1 µM (ERK2(MAPK1)) was 0% and the inhibition at 1 µM (ALK) was 4.27%. It also gave an inhibition at 1 µM (PDGFRβ) of 17.2%.
